# Source: patent US20230392126A1, “TISSUE ORGANOIDS” (priority 2016, published 2023)
# Key:
# [1] = i.p., mice; cited from earlier work
# [2] = Acute drug overdose test: cocaine-induced lethality; type: in vivo, mouse
# Method: For all behavioral experiments except where noted, C57BL/6J mice were used. Roughly equal numbers of adult male and female mice were group-housed until surgery. Mice were maintained under controlled temperature and humidity conditions on a 12 h:12 h light:dark cycle (lights on at 7:00). Water and food were available ad libitum. Mice weighed around 25-30 g at the beginning of the experiments. All procedures followed National Institutes of Health Guide for the Care and Use of Laboratory Animal and were approved by the University of Chicago Institutional Animal Care and Use Committee.
# Drug: Cocaine HCl and methamphetamine HCl (Sigma-Aldrich, Saint Louis, MO) were dissolved in sterile saline and delivered intraperitoneally at appropriates doses in a volume of 10 mL/kg. Ethanol (Sigma-Aldrich, Saint Louis, MO, 95%, density=0.816) was prepared in 20% (v/v) diluted in sterile saline and delivered intraperitoneally at appropriate doses. Vehicle (sterile saline) was intraperitoneally administered at 10 mL/kg as a control.
# Acute drug overdose test: Two weeks after grafting surgery, 4 groups of GhBChE and 4 groups of GWT mice (n=8 each in each group) received i.p. injections of cocaine at […]. As a control, 4 groups of GhBChE and 4 groups of GWT mice (n=8 each) received i.p. injections of methamphetamine (METH) at 34, 68 (LD50), 100, and 160 mg/kg. Two each of GhBChE and GWT mice with CD1 mice as hosts were also used to videotape acute cocaine (80 mg/kg) induced behaviors. Mice were monitored for 2 h following injection and percent of cocaine- and METH-induced lethality was calculated.
# To first determine whether engrafting hBChE-expressing cells protects mice from acute systemic toxicity of cocaine, we delivered different doses of cocaine to grafted mice and calculated the lethality rates of cocaine. […] Parallel testing was conducted to test the toxicity of a related stimulant METH (methamphetamine) in GhBChE and GWT mice.
# [3] = biological target: T1, GLP-1 receptor (Mus musculus, UniProt O35659); settings: mice; cited from earlier work
# T1 construct: host or cells: living mice (endogenous receptor)
# T1 sequence (O35659 22-463): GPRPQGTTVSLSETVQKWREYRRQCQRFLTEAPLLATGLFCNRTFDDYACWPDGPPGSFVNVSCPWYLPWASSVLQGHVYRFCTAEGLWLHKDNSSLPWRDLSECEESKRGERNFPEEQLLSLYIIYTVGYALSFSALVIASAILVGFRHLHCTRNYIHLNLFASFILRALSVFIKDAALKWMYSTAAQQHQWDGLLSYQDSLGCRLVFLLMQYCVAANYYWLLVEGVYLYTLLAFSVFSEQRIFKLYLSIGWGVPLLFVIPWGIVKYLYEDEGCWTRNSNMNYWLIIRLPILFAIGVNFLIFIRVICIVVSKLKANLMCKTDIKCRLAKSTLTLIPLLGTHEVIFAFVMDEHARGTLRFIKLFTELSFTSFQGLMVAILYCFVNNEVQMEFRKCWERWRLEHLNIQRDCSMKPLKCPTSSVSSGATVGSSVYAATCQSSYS
# [4] = test system: epidermal progenitor cells; assay: Suicide gene-induced cell death in epidermal progenitor cells upon prodrug treatment; type: cell-based; settings: ganciclovir and 5-fluorocytosine, respectively; data not shown
# Description: To test this possibility, a Rosa26 targeting vector encoding phenylalanine ammonia lyase (PAL) (SEQ ID NO: 51) together with inducible “suicide” genes HSV-TK (Herpes Simplex Virus Thymidine Kinase) (SEQ ID NO: 52) and yCD (yeast cytosine deaminase) (SEQ ID NO: 53) was used for epidermal progenitor cell transfection.
# [5] = test system: mouse epidermal stem cells; assay: Cell proliferation and differentiation of engineered mouse epidermal cells in vitro (cell cycle FACS, calcium shift western blot); type: cell-based
# Method: Primary human neonatal epidermal keratinocytes were obtained from Thermo Fischer® (C0015C), and cultured with Epilife® medium (Thermo Fischer, M-EPICF-500) with manufacturer's recommended procedures. Calcium shift was performed to induce differentiation of primary keratinocytes by increasing the calcium concentration in culture media to 1.5 mM.
# Propidium iodide (PI) staining followed by flow cytometry were used to determine the effect of cell cycle profiles. Mouse and human epidermal cells were cultured in two 6 cm cell culture dish for 24 hours, respectively. Cells were trypsinized, and 1×10^5 cells from each dish were collected, followed by one PBS wash. […] After staining, the cells were analyzed immediately using flow cytometer BD FACSCanto™ II (BD Biosciences, San Jose, CA) with an excitation wavelength at 488 nm and emission at 585 nm. DNA content and histograms of cell cycle distribution were analyzed using FlowJo™ software, version 10 (FLOWJO LLC, OR).
# Western blotting was performed as described previously (Blanpain et al.). […] Visualization and quantification was carried out with the LI-COR Odyssey® scanner and software (LI-COR Biosciences).
# Propidium iodide (PI) staining followed by flow cytometry were used to determine the effect of cell cycle profiles. […] DNA content and histograms of cell cycle distribution were analyzed using FlowJo™ software, version 10 (FLOWJO LLC, OR). […]
# [6] = PKU mouse model (PAH mutant, BTBR strain) grafted with PAL-expressing cells: plasma phenylalanine, fur color, tissue enzyme activity; type: in vivo; settings: PAH mutant mice, ~2 mM plasma phenylalanine
# Description: The mouse model of PKU has been developed by ENU (N-ethyl-N-nitrosourea)-mediated mutagenesis in BTBR strain (Jax strain 002232).
# With establishment of skin engraftment in PAH mutant mice, plasma phenylalanine level are monitored. Three weeks post skin grafting with PAL expressing cells or control cells (BTBR epidermal progenitor cells treated with control vectors), blood samples are collected from the tail clipping biweekly for up to 30 weeks. Plasma is separated by centrifugation. Phenylalanine concentration is determined by established fluorometric protocol. Lowering of phenylalanine level restores melanin biosynthesis, and leads to a change of fur color. Potential alteration in fur coat color is recorded weekly for all the grafted animals. […] Thus, two different cohorts of animals (male and female) are established to test the potential gender-dependent effect of cutaneous gene therapy in vivo.
# At the endpoint of the experiment (30 weeks), grafted animals are euthanized and tissue samples (grafted skin, host skin, and liver) are collected. Presence of enzyme activity in the tissues is determined by PAH and PAL activity assay.
# A complete phenotypic change from brown hair coat to dark black fur is also expected. For tissue enzymatic analysis, PAL activity detection in grafted skin is expected but not in other tissues. PAH activity is absent in the liver of the mutant mice. […]
# [7] = Phenylalanine clearance by PAL-expressing mouse epidermal keratinocytes in vitro; type: cell-based
# Description: Therefore, using CRISPR-mediated genome editing with epidermal progenitor cell technology the possibility for treatment of PKU by cutaneous expression of PAL is investigated.
# A complete phenotypic change from brown hair coat to dark black fur is also expected. For tissue enzymatic analysis, PAL activity detection in grafted skin is expected but not in other tissues. PAH activity is absent in the liver of the mutant mice. Female mice are more resistant to PKU therapy. If this is the case for cutaneous gene therapy, female PAH mutant mice are tested to determine whether they require larger skin grafts or more grafts than male mice for correction of hyperphenylalaninemia.
# [8] = WT GGBP; read-out: glucose binding affinity (Kd); cited from earlier work
compound,measurement,setting,value
"CN[C@@H](C)Cc1ccccc1 [METH, methamphetamine]",LD50,[1],68 mg/kg
COC(=O)[C@H]1[C@@H](OC(=O)c2ccccc2)C[C@@H]2CC[C@H]1N2C [cocaine],lethality,"[2]; 80 mg/kg i.p., control mice grafted with WT epidermal cells (GWT)",roughly 50%
same,lethality,"[2]; 120 mg/kg i.p., GWT mice",100%
same,lethality,"[2]; 160 mg/kg i.p., GWT mice",100%
Exendin-4,effect on nicotine-induced behaviours,[3],"attenuates nicotine-induced locomotor stimulation, accumbal dopamine release, and the expression of conditioned place preference in mice"
"HSV-TK: inducible suicide gene, Herpes Simplex Virus Thymidine Kinase (SEQ ID NO: 52), prodrug ganciclovir",cell death upon prodrug treatment,[4],efficiently induced cell death upon treatment with prodrugs
PAL: Phenylalanine ammonia-lyase (SEQ ID NO: 51) expressed in epidermal keratinocytes,effect of expression on cell proliferation / differentiation in vitro,[5],does not significantly alter cell proliferation or differentiation in vitro
same,effect on hyperphenylalaninemia,[6],sufficient for a complete reversal of hyperphenylalaninemia
same,degradation of phenylalanine in culture media compared with PAH,"[7]; lentivirus-infected mouse epidermal keratinocytes, preliminary",much faster than cells expressing PAH
same,phenylalanine removal by grafts,"[7]; two 1 cm^2 epidermal grafts, ~2×10^7 metabolically active cells",57 pmol of phenylalanine per day
WT (wild type) GGBP: wild type glucose/galactose-binding protein of E. coli periplasm,Kd,[8],200 nM
